From patent US8501755B2, “Tetrahydropyridothienopyrimidine compounds and methods of use thereof” (Bayer Intellectual Property GmbH, priority 2006, dated 2013)
pIC50: −log10 of the molar value.

Assays:
Assay type in all cases: cell-based
N87 = assay: In vitro tumor cell proliferation assay (Cell Titer-Glo) in N87 cells; conditions: N87 human gastric carcinoma overexpressing HER2 and HER1; 72 hours exposure; read-out: IC50, activities in N87 cell lines
In short: (§1)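 Viability after 72 h drug exposure at 37 °C was read as CellTiter-Glo ATP luminescence, giving IC50. Cells (2.5×10^3/well, RPMI + 10% FBS) were compound-treated one day post-seeding, 0.1% DMSO final: A431 overexpresses HER1, N87 overexpresses HER2 and HER1.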

H1975 cells = assay: In vitro tumor cell proliferation assay (Cell Titer-Glo) in H1975 cells; conditions: NCI-H1975; H1975 human NSCLC expressing mutant HER1 (L858R,T790M); 72 hours exposure; read-out: IC50, activities in H 1975 cell lines
In short: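 After 72 h compound exposure at 37° C (top 10 uM down to 64 pM, 0.1% DMSO), viability of EGFR L858R/T790M-mutant H1975 cells was read as ATP luminescence.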

A431 cells = assay: In vitro tumor cell proliferation assay (Cell Titer-Glo) in A431 cells; conditions: Homo sapiens, A-431, 72 h, A431 human epidermoid carcinoma overexpressing HER1; 72 hours exposure; read-out: IC50, activities in A431 cell lines
In short: as §1

| Compound | pIC50 (N87) | pIC50 (H1975 cells) | pIC50 (A431 cells) |
| --- | --- | --- | --- |
| Cc1ccc(F)cc1Nc1ncnc2sc3c(c12)CCN(C(=O)/C=C/CN(C)C)C3 [Example 166, 7-[(2E)-4-(dimethylamino)but-2-enoyl]-N-(5-fluoro-2-methylphenyl)-5,6,7,8-tetrahydropyrido [4′,3′:4,5]thieno[2,3-d]pyrimidin-4-amine] | 5.30 to 6.70 | 5.00 to 6.00 | 5.00 to 6.00 |
| CCOc1cccc(Nc2ncnc3sc4c(c23)CCN(C(=O)/C=C/CN(C)C)C4)c1 [Example 168, 7-[(2E)-4-(dimethylamino)but-2-enoyl]-N-(3-ethoxyphenyl)-5,6,7,8-tetrahydropyrido [4′,3′:4,5]thieno[2,3-d]pyrimidin-4-amine] | > 6.70 | 5.00 to 6.00 | 5.00 to 6.00 |
| CN(C)C/C=C/C(=O)N1CCc2c(sc3ncnc(NCc4ccccc4)c23)C1 [Example 169, N-benzyl-7-[(2E)-4-(dimethylamino)but-2-enoyl]-5,6,7,8-tetrahydropyrido [4′,3′:4,5]thieno[2,3-d]pyrimidin-4-amine] | > 6.70 | 5.00 to 6.00 | 5.00 to 6.00 |
| CN(C)C/C=C/C(=O)N1CCc2c(sc3ncnc(Nc4ccc(C#N)c(Cl)c4)c23)C1 [Example 173, 2-chloro-4-({7-[(2E)-4-(dimethylamino)but-2-enoyl]-5,6,7,8-tetrahydropyrido [4′,3′:4,5]thieno[2,3-d]pyrimidin-4-yl}amino)benzonitrile] | > 6.70 | 5.00 to 6.00 | 5.00 to 6.00 |
| CN(C)C/C=C/C(=O)N1CCc2c(sc3ncnc(Nc4ccc(F)cc4)c23)C1 [Example 175, 7-[(2E)-4-(dimethylamino)but-2-enoyl]-N-(4-fluorophenyl)-5,6,7,8-tetrahydropyrido [4′,3′:4,5]thieno[2,3-d]pyrimidin-4-amine] | > 6.70 | 5.00 to 6.00 | 5.00 to 6.00 |
| CCc1cccc(Nc2ncnc3sc4c(c23)CCN(C(=O)/C=C/CN(C)C)C4)c1 [Example 178, 7-[(2E)-4-(dimethylamino)but-2-enoyl]-N-(3-ethylphenyl)-5,6,7,8-tetrahydropyrido [4′,3′:4,5]thieno[2,3-d]pyrimidin-4-amine] | > 6.70 | 5.00 to 6.00 | 5.00 to 6.00 |
| COc1cccc(Nc2ncnc3sc4c(c23)CCN(C(=O)/C=C/CN(C)C)C4)c1 [Example 179, 7-[(2E)-4-(dimethylamino)but-2-enoyl]-N-(3-methoxyphenyl)-5,6,7,8-tetrahydropyrido [4′,3′:4,5]thieno[2,3-d]pyrimidin-4-amine] | > 6.70 | 5.00 to 6.00 | 5.00 to 6.00 |
| CN(C)C/C=C/C(=O)N1CCc2c(sc3ncnc(Nc4ccc(Cl)c(F)c4)c23)C1 [Example 180, N-(4-chloro-3-fluorophenyl)-7-[(2E)-4-(dimethylamino)but-2-enoyl]-5,6,7,8-tetrahydropyrido [4′,3′:4,5]thieno[2,3-d]pyrimidin-4-amine] | > 6.70 | 5.00 to 6.00 | 6.00 to 6.70 |
| CN(C)C/C=C/C(=O)N1CCc2c(sc3ncnc(Nc4ccc(Br)cc4)c23)C1 [Example 184, N-(4-bromophenyl)-7-[(2E)-4-(dimethylamino)but-2-enoyl]-5,6,7,8-tetrahydropyrido [4′,3′:4,5]thieno[2,3-d]pyrimidin-4-amine.] | > 6.70 | 5.00 to 6.00 | 6.00 to 6.70 |
| CN(C)C/C=C/C(=O)N1CCc2c(sc3ncnc(Nc4ccc5c(c4)CCC5)c23)C1 [Example 185, N-(2,3-dihydro-1H-inden-5-yl)-7-[(2E)-4-(dimethylamino)but-2-enoyl]-5,6,7,8-tetrahydropyrido [4′,3′:4,5]thieno[2,3-d]pyrimidin-4-amine] | > 6.70 | 5.00 to 6.00 | 6.00 to 6.70 |
| CCN(C)C/C=C/C(=O)N1CCc2c(sc3ncnc(Nc4cccc(Br)c4)c23)C1 [Example 186, N-(3-bromophenyl)-7-{(2E)-4-[ethyl(methyl)amino]but-2-enoyl}-5,6,7,8-tetrahydropyrido [4′,3′:4,5]thieno[2,3-d]pyrimidin-4-amine] | > 6.70 | 6.00 to 6.70 | 6.00 to 6.70 |
| CC(C)N(C)C/C=C/C(=O)N1CCc2c(sc3ncnc(Nc4ccc(Cl)c(Cl)c4)c23)C1 [Example 187, N-(3,4-dichlorophenyl)-7-{(2E)-4-[isopropyl(methyl)amino]but-2-enoyl}-5,6,7,8-tetrahydropyrido[4′,3′:4,5]thieno[2,3-d]pyrimidin-4-amine] | > 6.70 | > 6.70 | 6.00 to 6.70 |
| CCN(CC)C/C=C/C(=O)N1CCc2c(sc3ncnc(Nc4ccc(Cl)c(Cl)c4)c23)C1 [Example 188, N-(3,4-dichlorophenyi)-7-[(2E)-4-(diethylamino)but-2-enoyl]-5,6,7,8-tetrahydropyrido [4′,3′:4,5]thieno[2,3-d]pyrimidin-4-amine] | > 6.70 | 6.00 to 6.70 | 6.00 to 6.70 |
| CC(C)N(C)C/C=C/C(=O)N1CCc2c(sc3ncnc(Nc4cccc(Br)c4)c23)C1 [Example 189, N-(3-bromophenyl)-7-{(2E)-4-[isopropyl(methyl)amino]but-2-enoyl}-5,6,7,8-tetrahydropyrido [4′,3′:4,5]thieno[2,3-d]pyrimidin-4-amine] | > 6.70 | 6.00 to 6.70 | 6.00 to 6.70 |
| CCN(C)C/C=C/C(=O)N1CCc2c(sc3ncnc(Nc4ccc(Cl)c(Cl)c4)c23)C1 [Example 190, N-(3,4-dichlorophenyl)-7-{(2E)-4-[ethyl(methyl)amino]but-2-enoyl}-5,6,7,8-tetrahydropyrido [4′,3:4,5]thieno[2,3-d]pyrimidin-4-amine] | > 6.70 | 6.00 to 6.70 | 6.00 to 6.70 |
| O=C(/C=C/CN1CCOCC1)N1CCc2c(sc3ncnc(Nc4ccc(Cl)c(Cl)c4)c23)C1 [Example 191, N-(3,4-dichlorophenyl)-7-[{2E)-4-morpholin-4-ylbut-2-enoyl]-5,6,7,8-tetrahydropyrido [4′,3′:4,5]thieno[2,3-d]pyrimidin-4-amine] | > 6.70 | 5.00 to 6.00 | 6.00 to 6.70 |
| O=C(/C=C/CN1CCCC1)N1CCc2c(sc3ncnc(Nc4ccc(Cl)c(Cl)c4)c23)C1 [Example 192, N-(3,4-dichlorophenyl)-7-[(2E)-4-pyrrolidin-1-ylbut-2-enoyl]-5,6,7,8-tetrahydropyrido [4′,3′:4,5]thieno[2,3-d]pyrimidin-4-amine] | > 6.70 | 6.00 to 6.70 | 6.00 to 6.70 |

Continued, values first:

| pIC50 (N87) | pIC50 (H1975 cells) | pIC50 (A431 cells) | Compound |
| --- | --- | --- | --- |
| > 6.70 | 5.00 to 6.00 | 5.00 to 6.00 | Cc1cc(C)cc(Nc2ncnc3sc4c(c23)CCN(C(=O)/C=C/CN(C)C)C4)c1 [Example 167, 7-[(2E)-4-(dimethylamino)but-2-enoyl]-N-(3,5-dimethylphenyl)-5,6,7,8-tetrahydropyrido [4′,3′:4,5]thieno[2,3-d]pyrimidin-4-amine] |
| > 6.70 | 6.00 to 6.70 | 6.00 to 6.70 | CN(C)C/C=C/C(=O)N1CCc2c(sc3ncnc(Nc4ccc(Br)c(Cl)c4)c23)C1 [Example 172, N-(4-bromo-3-chlorophenyl)-7-[(2E)-4-(dimethylamino)but-2-enoyl]-5,6,7,8-tetrahydropyrido [4′,3′:4,5]thieno[2,3-d]pyrimidin-4-amine] |
| > 6.70 | 5.00 to 6.00 | 5.00 to 6.00 | CN(C)C/C=C/C(=O)N1CCc2c(sc3ncnc(Nc4cc(Cl)cc(Cl)c4)c23)C1 [Example 174, N-(3,5-dichlorophenyl)-7-[(2E)-4-(dimethylamino)but-2-enoyl]-5,6,7,8-tetrahydropyrido [4′,3′:4,5]thieno[2,3-d]pyrimidin-4-amine] |
| > 6.70 | 6.00 to 6.70 | 6.00 to 6.70 | CN(C)C/C=C/C(=O)N1CCc2c(sc3ncnc(Nc4ccc(F)c(Br)c4)c23)C1 [Example 176, N-(3-bromo-4-fluorophenyl)-7-[(2E)-4-(dimethylamino)but-2-enoyl]-5,6,7,8-tetrahydropyrldo [4′,3′:4,5]thieno[2,3-d]pyrimidin-4-amine] |
| > 6.70 | 5.00 to 6.00 | 5.00 to 6.00 | Cc1cccc(Nc2ncnc3sc4c(c23)CCN(C(=O)/C=C/CN(C)C)C4)c1 [Example 177, 7-[(2E)-4-(dimelhylamino)but-2-enoyl]-N-(3-methylphenyl)-5,6,7,8-tetrahydropyrido [4′,3′:4,5]thieno[2,3-d]pyrimidin-4-amine] |
| > 6.70 | 5.00 to 6.00 | 5.00 to 6.00 | CN(C)C/C=C/C(=O)N1CCc2c(sc3ncnc(Nc4cc(F)cc(Cl)c4)c23)C1 [Example 181, N-(3-chloro-5-fluorophenyl)-7-[(2E)-4-(dimethylamino)but-2-enoyl]-5,6,7,8-tetrahydropyrido [4′,3′:4,5]thieno[2,3-d]pyrimidin-4-amine] |
| > 6.70 | 5.00 to 6.00 | 6.00 to 6.70 | Cc1cc(Nc2ncnc3sc4c(c23)CCN(C(=O)/C=C/CN(C)C)C4)ccc1F [Example 182, 7-[(2E)-4-(dimethylamino)but-2-enoyl]-N-(4-fluoro-3-methylphenyl)-5,6,7,8-tetrahydropyrido [4′,3′:4,5]thieno[2,3-d]pyrimidin-4-amine] |
| > 6.70 | > 6.70 | 6.00 to 6.70 | Cc1cc(Nc2ncnc3sc4c(c23)CCN(C(=O)/C=C/CN(C)C)C4)ccc1Cl [Example 183, N-(4-chloro-3-methylphenyl)-7-[(2E)-4-(dimethylamino)but-2-enoyl]-5,6,7,8-tetrahydropyrido [4′,3′:4,5]thieno[2,3-d]pyrimidin-4-amine] |
